The values below come from article PMC10531311, “Anti-Inflammatory Activities of 8-Benzylaminoxanthines Showing High Adenosine A2A and Dual A1/A2A Receptor Affinity” (International Journal of Molecular Sciences, 2023).

Marks after values point to notes of the source that are not given here. Where only a bound is given, the exact number is not on record here.

The test system of one data set is formalin test in mice. Briefly: Formalin test. Type of data set: in vivo, albino Swiss mice. Particulars: mice. On the procedure: Injection of formalin into the dorsal surface of the hind paw of a mouse produces a biphasic nocifensive behavioral response; i.e., licking, biting, flinching or lifting of the injected paw. The acute (neurogenic) nociceptive phase lasts for the first 5 min and is followed by a period of little activity for the next 10 min. The first phase of the test is directly associated with nociceptor stimulation and the development of neurogenic inflammation. The second (late) phase occurs between 15 and 30 min after formalin injection. The second phase depends on peripheral inflammation and the central sensitization of pain. Since this phase reflects the activation of inflammatory processes, the compounds active in this phase of the experiment also have an anti-inflammatory effect. The tested compounds 19, 22 and 24, were investigated in three doses: 10, 20 and 40 mg/kg bw. ASA (acetylsalicylic acid) was used as a reference compound and administered in doses of 50, 100 and 200 mg/kg. […] The strongest effect in this assay was produced by 24. […] In addition, this anti-nociceptive and anti-inflammatory effect was approximately 13.8 times greater than that observed for the reference compound (ASA). […] ASA also attenuated statistically significant pain responses in the late phases of the formalin test. […] The in vivo experiments were carried out on male albino Swiss mice weighing 18–26 g and male Wistar rats weighing 150–180 g. The animals were housed in constant temperature facilities exposed to a 12:12 light-dark cycle and maintained on a standard pellet diet and tap water given ad libitum. The control and experimental groups consisted of 6–8 animals each. The investigated compounds were intraperitoneally (ip) administered in the form of a suspension in 0.5% methylcellulose. Control animals received the equivalent volume of solvent. All procedures were conducted according to the guidelines of ICLAS (International Council on Laboratory Animals Science) and were approved by the Local Ethics Committee of the Jagiellonian University in Kraków. The mice were pretreated with the test compound or the vehicle and were allowed to acclimate in Plexiglas observation chambers (20 × 30 × 15 cm) for 30 min before the test. Then, 20 μL of a 5% formalin solution was intraplantarly injected into the right hind paw using a 26-gauge needle. Immediately after formalin injection, the animals were individually placed into glass beakers and were observed during the next 30 min. Time (in seconds) spent on licking or biting the injected paw in selected intervals, 0–5, 15–20, 20–25 and 25–30 min, was measured in each experimental group and was an indicator of nociceptive behavior [41]. The ED50 values and their confidence limits were estimated by the method of Litchfield and Wilcoxon.

Another data set has as its target T1, human adenosine A1R (Homo sapiens, UniProt P30542).
T1 construct: expressed in transfected cells; host or cells: CHO cells
T1 sequence (P30542 1-326): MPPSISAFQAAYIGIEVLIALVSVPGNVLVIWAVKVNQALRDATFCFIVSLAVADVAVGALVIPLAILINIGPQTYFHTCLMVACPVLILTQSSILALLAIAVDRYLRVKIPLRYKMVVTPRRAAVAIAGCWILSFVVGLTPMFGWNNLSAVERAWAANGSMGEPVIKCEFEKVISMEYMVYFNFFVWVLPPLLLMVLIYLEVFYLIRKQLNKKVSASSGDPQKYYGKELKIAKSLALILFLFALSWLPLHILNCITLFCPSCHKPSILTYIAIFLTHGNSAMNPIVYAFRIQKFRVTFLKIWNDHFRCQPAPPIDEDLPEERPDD
Briefly: Radioligand binding at human adenosine A1 receptor vs. [3H]CCPA. The note with it: for inhibition at 1 µM: CHO cells, read-out: A1R vs. [³H]CCPA % Inhibition ± SEM at 1 µM; for Ki: human recombinant receptor in CHO cells, read-out: A1R vs. [³H]CCPA Ki ± SEM. On the procedure: (§1) Affinities for adenosine receptors were evaluated in radioligand binding assays as previously described. Human adenosine receptors were stably expressed in CHO cells. The following radioligands were used: [^3H]2-chloro-N^6-cyclopentyladenosine ([^3H]CCPA) for A1R; [^3H]3-(3-hydroxypropyl)-7-methyl-8-(m-methoxystyryl)-1-propargylxanthine ([^3H]MSX-2) for A2AR; [^3H]8-(4-(4-(4-chlorophenyl)piperazine-1-sulfonyl)phenyl)-1-propylxanthine ([^3H]PSB-603) for A2BR; [^3H]phenyl-8-ethyl-4-methyl-(8R)-4,5,7,8-tetrahydro-1H-imidazo [2,1-i]purine-5-one ([^3H]PSB-11) for A3R. Initially, compounds were tested at a concentration of 1 µM. […] At least three independent experiments were performed. Data were analyzed using GraphPad PRISM version 5.0 or higher (Graph Pad, San Diego, CA, USA). Ki were calculated using the Cheng–Prusoff equation.

In the next data set the target is T2, human adenosine A2AR (Homo sapiens, UniProt P29274).
T2 construct: expressed in transfected cells; host or cells: CHO cells
The data set is described as follows: Radioligand binding at human adenosine A2A receptor vs. [3H]MSX-2. The note with it: for Ki: human recombinant receptor in CHO cells, read-out: A2AR vs. [³H]MSX-2 Ki ± SEM; for A2AR vs. [³H]MSX-2 % Inhibition ± SEM at 1 µM: CHO cells. On the procedure: as §1

Another data set has as its target T3, human adenosine A2BR (Homo sapiens, UniProt P29275).
T3 construct: expressed in transfected cells; host or cells: CHO cells
T3 sequence (P29275 1-332): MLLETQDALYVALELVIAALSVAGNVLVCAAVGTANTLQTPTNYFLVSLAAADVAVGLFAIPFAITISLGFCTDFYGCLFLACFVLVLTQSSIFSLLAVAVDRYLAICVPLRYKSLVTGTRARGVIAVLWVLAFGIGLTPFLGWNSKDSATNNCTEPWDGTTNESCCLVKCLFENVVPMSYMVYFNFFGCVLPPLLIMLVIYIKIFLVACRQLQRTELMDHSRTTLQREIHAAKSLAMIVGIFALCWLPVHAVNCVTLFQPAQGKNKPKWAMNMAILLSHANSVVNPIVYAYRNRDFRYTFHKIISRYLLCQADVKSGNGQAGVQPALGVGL
Briefly: Radioligand binding at human adenosine A2B receptor vs. [3H]PSB-603. The note with it: for inhibition at 1 µM: CHO cells, read-out: A2BR vs. [³H]PSB-603 % Inhibition ± SEM at 1 µM; for Ki: human recombinant receptor in CHO cells, read-out: A2BR vs. [³H]PSB-603 Ki ± SEM. On the procedure: as §1

For a further data set, the target named is T4, human adenosine A3R (Homo sapiens, UniProt P0DMS8).
T4 construct: expressed in transfected cells; host or cells: CHO cells
T4 sequence (P0DMS8 1-318): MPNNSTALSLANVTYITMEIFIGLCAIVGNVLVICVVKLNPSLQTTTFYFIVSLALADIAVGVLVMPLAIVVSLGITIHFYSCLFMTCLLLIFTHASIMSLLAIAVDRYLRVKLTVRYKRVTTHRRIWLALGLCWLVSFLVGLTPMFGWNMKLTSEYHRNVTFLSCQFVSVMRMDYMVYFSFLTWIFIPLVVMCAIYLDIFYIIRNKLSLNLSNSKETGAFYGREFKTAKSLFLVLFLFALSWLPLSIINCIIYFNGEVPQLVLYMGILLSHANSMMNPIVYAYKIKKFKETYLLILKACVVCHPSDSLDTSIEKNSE
The data set is described as follows: Radioligand binding at human adenosine A3 receptor vs. [3H]PSB-11. The note with it: for inhibition at 1 µM: CHO cells, read-out: A3R vs. [H³]PSB-11 % Inhibition ± SEM at 1 µM; for Ki: human recombinant receptor in CHO cells, read-out: A3R vs. [H³]PSB-11 Ki ± SEM. On the procedure: as §1

T2 sequence (P29274 whole entry): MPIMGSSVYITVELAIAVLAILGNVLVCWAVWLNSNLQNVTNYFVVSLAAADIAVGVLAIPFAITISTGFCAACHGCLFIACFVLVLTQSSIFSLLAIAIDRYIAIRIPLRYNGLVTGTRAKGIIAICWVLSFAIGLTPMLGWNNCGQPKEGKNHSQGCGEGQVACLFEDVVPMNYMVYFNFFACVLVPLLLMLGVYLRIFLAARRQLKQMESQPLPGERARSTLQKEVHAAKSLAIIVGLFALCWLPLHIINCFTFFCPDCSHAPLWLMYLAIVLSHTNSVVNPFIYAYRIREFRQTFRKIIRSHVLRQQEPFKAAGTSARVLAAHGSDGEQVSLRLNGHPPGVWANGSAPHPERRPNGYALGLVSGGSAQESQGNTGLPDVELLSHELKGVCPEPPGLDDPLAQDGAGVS

The term ED50 denotes the dose that gives a 50% effect, or the effect in half of the subjects. Turning to `CC(=O)Oc1ccccc1C(=O)O` [ASA, acetylsalicylic acid, reference compound], the ED50 with formalin test in mice (Mus musculus, II (late) phase, method of Litchfield and Wilcoxon, read-out: calculated ED50 in the formalin test) is 126 mg/kg. For the same compound, in the data set with formalin test in mice (50 mg/kg), the “Early Phase Inhibition (%)” value amounted to 12.4%, the “Late Phase Inhibition (%)” value is on record as 10.0%, the “Licking of the Hind Paw Early Phase (0–5 min) Mean ± SEM” value (shortened to “Licking … (0–5 min) Mean ± SEM”) came out at 59.8 ± 6.3 s and the “Licking of the Hind Paw Late Phase (15–30 min) Mean ± SEM” value (“Licking … (15–30 min) Mean ± SEM” below) was determined as 108.7 ± 13.8 s. Moreover, in the data set with formalin test in mice (100 mg/kg), the “Early Phase Inhibition (%)” value is on record as 14.3%, the “Late Phase Inhibition (%)” value worked out at 50.0%, the “Licking … (0–5 min) Mean ± SEM” value was found to be 58.5 ± 4.5 s and the “Licking … (15–30 min) Mean ± SEM” value was 60.3 ± 9.5 ^c sec. Besides, in the data set with formalin test in mice (200 mg/kg), the “Late Phase Inhibition (%)” value amounted to 66.3%, the “Licking … (0–5 min) Mean ± SEM” value is 62.0 ± 8.6 s and the “Licking … (15–30 min) Mean ± SEM” value is on record as 40.6 ± 14.0 ^c sec.

For orientation: inhibition means the change of the read-out against control, counted positive when it falls. Broadly, the Ki is the dissociation constant of the complex between target and ligand, obtained from inhibition or displacement. One may read the melting point as the temperature of the solid-liquid transition. `Cn1c(NCc2ccccc2Cl)nc2c1c(=O)n(Cc1ccc(Cl)cc1)c(=O)n2C` [compound 10, 1-(4-Chlorobenzyl)-8-((2-chlorobenzyl)amino)-3,7-dimethyl-3,7-dihydro-1H-purine-2,6-dione] came in with a melting point of 228 to 230 °C. Also, on human adenosine A1R, the inhibition at 1 µM stood at 12% and the Ki was over 1 µM. In addition, the inhibitory constant (Ki) at human adenosine A2AR was over 1 µM. Besides, on human adenosine A2BR, the inhibition at 1 µM is 14% and the Ki was over 1 µM. For the same compound, at human adenosine A3R, the inhibition at 1 µM was determined as 31% and the Ki is over 1 µM.

Compound `CCCCCCn1c(=O)c2c(nc(NCc3ccccc3Cl)n2C)n(C)c1=O` [compound 8, 8-((2-Chlorobenzyl)amino)-1-hexyl-3,7-dimethyl-3,7-dihydro-1H-purine-2,6-dione] gave a melting point of 191 to 194 °C. Further, at human adenosine A1R, the inhibition at 1 µM is 17% and the Ki is over 1 µM. In addition, at human adenosine A2AR, the “A2AR vs. [³H]MSX-2 % Inhibition ± SEM at 1 µM” value is 9 ± 8% and the Ki is over 1 µM. At human adenosine A2BR, the inhibition at 1 µM turned out to be 13% and the Ki was over 1 µM. In addition, on human adenosine A3R, the inhibition at 1 µM turned out to be 31% and the Ki was over 1 µM.

The compound `Cn1c(NCc2ccccc2Cl)nc2c1c(=O)n(Cc1ccc(Cl)c(Cl)c1)c(=O)n2C` [compound 11, 8-((2-Chlorobenzyl)amino)-1-(3,4-dichlorobenzyl)-3,7-dimethyl-3,7-dihydro-1H-purine-2,6-dione] showed a melting point of 198 to 203 °C. For the same compound, at human adenosine A1R, the inhibition at 1 µM was found to be 10% and the Ki was over 1 µM. At human adenosine A2AR, the “A2AR vs. [³H]MSX-2 % Inhibition ± SEM at 1 µM” value was determined as 23 ± 7% and the Ki was over 1 µM. Further, at human adenosine A2BR, the inhibition at 1 µM was determined as 4% and the Ki was over 1 µM. Moreover, on human adenosine A3R, the inhibition at 1 µM was determined as 40% and the Ki is over 1 µM.

Compound `C#CCn1c(=O)c2c(nc(NCc3ccccc3F)n2C)n(C2CC2)c1=O` [compound 28, 3-Cyclopropyl-8-((2-fluorobenzyl)amino)-7-methyl-1-(prop-2-yn-1-yl)-3,7-dihydro-1H-purine-2,6-dione] displayed a melting point of 190 to 192 °C. The Ki on human adenosine A1R came out at 0.166 ± 0.065 µM. The Ki at human adenosine A2AR was 0.386 ± 0.061 µM. Moreover, on human adenosine A2BR, the inhibition at 1 µM amounted to 14% and the Ki was over 1 µM. On human adenosine A3R, the inhibition at 1 µM was -2% and the Ki is over 1 µM.

For the compound `CCCCn1c(=O)c2c(nc(NCc3ccccc3Cl)n2C)n(C)c1=O` [compound 6, 1-Butyl-8-((2-chlorobenzyl)amino)-3,7-dimethyl-3,7-dihydro-1H-purine-2,6-dione], the melting point is 181 to 183 °C. On human adenosine A1R, the inhibition at 1 µM is 21% and the Ki was over 1 µM. Besides, on human adenosine A2AR, the inhibitory constant (Ki) worked out at 0.318 ± 0.141 µM. On human adenosine A2BR, the inhibition at 1 µM amounted to 32% and the Ki was over 1 µM. Moreover, at human adenosine A3R, the inhibition at 1 µM was 11% and the Ki is over 1 µM.

In the case of `C#CCn1c(=O)c2c(nc(NCc3c(F)cccc3Cl)n2C)n(C2CC2)c1=O` [compound 29, 8-((2-Chloro-6-fluorobenzyl)amino)-3-cyclopropyl-7-methyl-1-(prop-2-yn-1-yl)-3,7-dihydro-1H-purine-2,6-dione], the melting point is 186 to 187 °C. Moreover, on human adenosine A1R, the Ki came out at 0.078 ± 0.009 µM. In addition, the inhibitory constant (Ki) on human adenosine A2AR was determined as 0.204 ± 0.038 µM. Besides, on human adenosine A2BR, the inhibition at 1 µM was found to be 16% and the inhibition constant Ki was over 1 µM. Moreover, on human adenosine A3R, the inhibition at 1 µM came out at 16% and the Ki is over 1 µM.

For `C#CCn1c(=O)c2c(nc(NCc3ccccc3Cl)n2C)n(C2CC2)c1=O` [compound 27, 8-((2-Chlorobenzyl)amino)-3-cyclopropyl-7-methyl-1-(prop-2-yn-1-yl)-3,7-dihydro-1H-purine-2,6-dione], the melting point was 172 to 173 °C. The inhibition constant Ki at human adenosine A1R worked out at 0.247 ± 0.043 µM. Moreover, the Ki at human adenosine A2AR was 0.311 ± 0.167 µM. For the same compound, at human adenosine A2BR, the inhibition at 1 µM stood at 9% and the Ki is over 1 µM. Further, at human adenosine A3R, the inhibition at 1 µM is 16% and the inhibition constant (Ki) was over 1 µM.

As to `Cn1c(NCc2ccccc2Cl)nc2c1c(=O)n(Cc1ccccc1)c(=O)n2C` [compound 9], the melting point was 205 to 208 °C. Also, at human adenosine A1R, the inhibition at 1 µM was found to be 23% and the Ki is over 1 µM. Besides, the Ki at human adenosine A2AR was 0.323 ± 0.15 µM. Moreover, on human adenosine A2BR, the inhibition at 1 µM was determined as 9% and the Ki is over 1 µM. Moreover, on human adenosine A3R, the inhibition at 1 µM was 24% and the inhibition constant Ki is over 1 µM.
